pIC50: −log10 of the molar value. Read-outs that look alike come from different tables or passages of the source.
Experiments:
human DGKα = human DGKα (Homo sapiens (Human), UniProt P23743); experiment: DGKα LIPGLO assay (extruded liposome substrate); type: biochemical
Procedure, shortened: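 Human full-length DGKα, His-tagged and produced in Sf9 cells, assayed at 20 nM (4× stock) on extruded liposomes of PS, 0.25 mM DAG and 2.75 mM PC, preincubated 10 min. Reaction started with 300 μM ATP (stock) and ran 1 h in MOPS pH 7.5/MgCl2/CaCl2/DTT buffer.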

human DGKζ = human DGKζ (Homo sapiens (Human), UniProt Q13574); experiment: DGKζ LIPGLO assay (extruded liposome substrate); type: biochemical
Procedure, shortened: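 Recombinant DGKζ (Sf9-expressed, Ni/SEC/SP-purified) preincubated 10 min with extruded 100 nm PC/DAG/PS liposomes in 50 mM MOPS pH 7.5, 100 mM NaCl, 10 mM MgCl2, 1 μM CaCl2, 1 mM DTT. Started with 300 uM ATP solution (stock, pre-addition); 1 hr reaction. ADP-Glo luminescence; IC50 from 11 concentrations.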

[1] = DGKζ LIPGLO IC50, extruded liposome substrate
[2] = extruded liposome substrate, read-out: DGKζ LIPGLO IC50

Chain of human DGKζ (Q13574 other isoform, or with tags, fused parts or gaps): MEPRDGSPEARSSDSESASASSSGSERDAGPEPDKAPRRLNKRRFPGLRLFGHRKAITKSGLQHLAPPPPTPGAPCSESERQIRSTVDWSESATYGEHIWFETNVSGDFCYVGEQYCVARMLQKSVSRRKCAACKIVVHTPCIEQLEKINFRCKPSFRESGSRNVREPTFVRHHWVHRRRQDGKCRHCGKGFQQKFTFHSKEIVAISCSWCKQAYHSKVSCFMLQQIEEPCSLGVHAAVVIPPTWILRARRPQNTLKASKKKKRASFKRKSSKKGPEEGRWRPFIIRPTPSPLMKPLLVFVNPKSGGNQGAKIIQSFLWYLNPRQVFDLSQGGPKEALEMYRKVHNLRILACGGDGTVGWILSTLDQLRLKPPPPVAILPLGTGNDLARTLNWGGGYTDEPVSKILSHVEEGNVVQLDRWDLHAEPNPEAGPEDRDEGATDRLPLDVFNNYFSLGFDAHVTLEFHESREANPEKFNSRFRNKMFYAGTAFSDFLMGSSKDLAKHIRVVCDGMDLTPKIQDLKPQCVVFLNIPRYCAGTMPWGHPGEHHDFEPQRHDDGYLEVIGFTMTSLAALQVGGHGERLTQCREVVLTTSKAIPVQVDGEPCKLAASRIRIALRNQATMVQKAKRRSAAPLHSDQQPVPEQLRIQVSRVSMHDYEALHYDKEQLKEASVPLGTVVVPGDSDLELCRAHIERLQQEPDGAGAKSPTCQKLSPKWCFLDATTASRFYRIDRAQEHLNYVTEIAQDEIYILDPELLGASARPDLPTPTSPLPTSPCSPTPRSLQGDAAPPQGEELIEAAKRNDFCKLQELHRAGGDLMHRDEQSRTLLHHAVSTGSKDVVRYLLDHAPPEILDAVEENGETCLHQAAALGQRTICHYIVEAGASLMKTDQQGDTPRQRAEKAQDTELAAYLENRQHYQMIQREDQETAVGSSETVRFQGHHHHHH
Chain of human DGKα (P23743 other isoform, or with tags, fused parts or gaps): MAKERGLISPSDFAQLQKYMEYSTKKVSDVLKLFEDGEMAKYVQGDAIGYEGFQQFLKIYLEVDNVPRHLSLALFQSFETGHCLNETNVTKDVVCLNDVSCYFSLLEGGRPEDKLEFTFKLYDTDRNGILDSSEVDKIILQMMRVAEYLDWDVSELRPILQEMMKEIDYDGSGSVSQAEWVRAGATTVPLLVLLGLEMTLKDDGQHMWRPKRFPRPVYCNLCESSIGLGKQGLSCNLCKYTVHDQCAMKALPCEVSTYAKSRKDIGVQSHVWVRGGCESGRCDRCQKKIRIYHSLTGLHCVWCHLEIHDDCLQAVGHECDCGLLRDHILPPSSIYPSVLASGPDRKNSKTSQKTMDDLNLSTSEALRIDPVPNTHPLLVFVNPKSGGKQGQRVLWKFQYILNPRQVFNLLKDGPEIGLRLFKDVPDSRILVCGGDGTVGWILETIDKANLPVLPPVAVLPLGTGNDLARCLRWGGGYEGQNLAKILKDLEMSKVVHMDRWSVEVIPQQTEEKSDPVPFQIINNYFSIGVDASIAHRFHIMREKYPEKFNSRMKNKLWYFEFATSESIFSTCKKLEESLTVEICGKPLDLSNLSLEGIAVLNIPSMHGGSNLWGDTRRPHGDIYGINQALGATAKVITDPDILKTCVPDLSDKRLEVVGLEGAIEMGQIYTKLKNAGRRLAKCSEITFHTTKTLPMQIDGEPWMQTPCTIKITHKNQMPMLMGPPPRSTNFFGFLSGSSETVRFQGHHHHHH

Compound	pIC50 (human DGKα)	pIC50 (human DGKζ; [1])	pIC50 (human DGKζ; [2])
C#CCn1c(=O)c([N+](=O)[O-])c(N2CCN(C(C)c3ccc(F)cc3)CC2)c2nc(C#N)ccc21 (single isomer, unassigned) [Example 137, 8-(4-(1-(4-fluorophenyl)ethyl)piperazin-1-yl)-7-nitro-6-oxo-5-(prop-2-yn-1-yl)-5,6-dihydro-1,5-naphthyridine-2-carbonitrile]	5.82	6.07	
Cn1c(=O)c([N+](=O)[O-])c(N2CCN(CC(O)c3ccc(F)cc3)CC2)c2nc(C#N)ccc21 (stereo not shown) [Example 36, 8-{4-[2-(4-fluorophenyl)-2-hydroxyethyl]piperazin-1-yl}-5-methyl-7-nitro-6-oxo-5,6-dihydro-1,5-naphthyridine-2-carbonitrile]	5.17		4.74
COc1cc(C#N)ccc1CN1CCN(c2c(C#N)c(=O)n(C)c3ccc(Cl)nc23)CC1 [Example 424, 6-chloro-4-{4-[(4-cyano-2-methoxyphenyl)methyl]piperazin-1-yl}-1-methyl-2-oxo-1,2-dihydro-1,5-naphthyridine-3-carbonitrile]	5.85		4.57
COc1cc(F)ccc1C(c1ccc(F)cc1)N1CCN(c2c(C#N)c(=O)n(C)c3ccc(C#N)nc23)CC1 (single isomer, unassigned) [Example 406, 8-{4-[(4-fluoro-2-methoxyphenyl)(4-fluorophenyl)methyl]piperazin-1-yl}-5-methy-6-oxo-5,6-dihydro-L5-naphthyridine-2,7-dicarbonitrile]	4.89		5.51
CC(c1ccc(F)cc1)N1CCN(c2c(C#N)c(=O)n(C)c3ccc(Cl)nc23)CC1 (single isomer, unassigned) [Example 388, 6-chloro-4-{4-[1-(4-fluorophenyl)ethyl]piperazin-1-yl}-1-methyl-2-oxo-1,2-dihydro-1,5-naphthyridine-3-carbonitrile]	7.29		3.89
Cc1ccc(CN2CCN(c3c(C#N)c(=O)n(C)c4ccc(Br)nc34)CC2)c(O)c1 [Example 372, 6-bromo-4-{4-[(2-hydroxy-4-methylphenyl)methyl]piperazin-1-yl}-1-methyl-2-oxo-1,2-dihydro-1,5-naphthyridine-3-carbonitrile]	7.11		5.06
COc1ccccc1C(c1ccc(F)cc1)N1CCN(c2c(C#N)c(=O)n(C)c3ccc(Br)nc23)CC1 (single isomer, unassigned) [Example 13, 6-bromo-4-{4-[(4-fluorophenyl)(2-methoxyphenyl)methyl]piperazin-1-yl}-1-methyl-2-oxo-1,2-dihydro-1,5-naphthyridine-3-carbonitrile]	5.27		
Cn1c(=O)c(C#N)c(N2CCN(C(c3ccc(F)cc3)C3CCC3)CC2)c2nc(Cl)ccc21 (single isomer, unassigned) [Example 383, 6-chloro-4-{4-[cyclobutyl(4-fluorophenyl)methyl]piperazin-1-yl}-1-methyl-2-oxo-1,2-dihydro-1,5-naphthyridine-3-carbonitrile]	6.66		< 5.62
Cn1c(=O)c(C#N)c(N2CCN(C(c3ccc(F)cc3)C3CCC3)CC2)c2nc(Cl)ccc21 (single isomer, unassigned) [Example 382, 6-chloro-4-{4-[cyclobutyl(4-fluorophenyl)methyl]piperazin-1-yl}-1-methyl-2-oxo-1,2-dihydro-1,5-naphthyridine-3-carbonitrile]	6.12		< 3.62
Cn1c(=O)c(C#N)c(N2CCN(C(c3ccc(F)cc3)c3ccccc3O)CC2)c2nc(C#N)ccc21 (stereo not shown) [Example 11, 8-{4-[(4-fluorophenyl)(2-hydroxyphenyl)methyl]piperazin-1-yl}-5-methyl-6-oxo-5,6-dihydro-1,5-naphthyridine-2,7-dicarbonitrile]	5.74	5.74	
COc1cc(F)ccc1C(c1ccc(F)cc1)N1CCN(c2c(C#N)c(=O)n(C)c3ccc(Br)nc23)CC1 (single isomer, unassigned) [Example 17, 6-bromo-4-{4-[(4-fluoro-2-methoxyphenyl)(4-fluorophenyl)methyl]piperazin-1-yl}-1-methyl-2-oxo-1,2-dihydro-1,5-naphthyridine-3-carbonitrile]	5.46		5.03
CC(c1ccc(F)cc1)N1CCN(c2c(C#N)c(=O)n(C)c3ccc(Cl)nc23)CC1 (single isomer, unassigned) [Example 387, 6-chloro-4-{4-[1-(4-fluorophenyl)ethyl]piperazin-1-yl}-1-methyl-2-oxo-1,2-dihydro-1,5-naphthyridine-3-carbonitrile]	6.57		5.80
CC(C)C(c1ccc(F)cc1)N1CCN(c2c(C#N)c(=O)n(C)c3ccc(Cl)nc23)CC1 (single isomer, unassigned) [Example 315, 6-chloro-4-{4-[1-(4-fluorophenyl)-2-methylpropyl]piperazin-1-yl}-methyl-2-oxo-1,2-dihydro-1,5-naphthyridine-3-carbonitrile]	< 3.62		5.80
COc1cc(F)ccc1C(c1ccc(F)cc1)N1CCN(c2c([N+](=O)[O-])c(=O)n(C)c3ccc(C#N)nc23)CC1 (single isomer, unassigned) [Example 124, 8-(4-((4-fluoro-2-methoxyphenyl)(4-fluorophenyl)methyl)piperazin-1-yl)-5-methyl-7-nitro-6-oxo-5,6-dihydro-1,5-naphthyridine-2-carbonitrile]	6.12	6.80	
C#CCn1c(=O)c([N+](=O)[O-])c(N2CCN(C(c3ccc(F)cc3)c3ccc(F)cc3O)CC2)c2nc(C#N)ccc21 (single isomer, unassigned) [Example 121, 8-(4-((4-fluoro-2-hydroxyphenyl)(4-fluorophenyl)methyl)piperazin-1-yl)-7-nitro-6-oxo-5-(prop-2-yn-1-yl)-5,6-dihydro-1,5-naphthyridine-2-carbonitrile]	5.19		7.26
Cc1ccc(CN2CCN(c3c(C#N)c(=O)n(C)c4ccc(Cl)nc34)CC2)cc1 [Example 386, 6-chloro-1-methyl-4-{4-[(4-methylphenyl)methyl]piperazin-1-yl}-2-oxo-1,2-dihydro-1,5-naphthyridine-3-carbonitrile]	6.59		5.17
C#CCn1c(=O)c([N+](=O)[O-])c(N2CCN(C(C)c3ccc(F)cc3)CC2)c2nc(C#N)ccc21 (single isomer, unassigned) [Example 136, 8-(4-(1-(4-fluorophenyl)ethyl)piperazin-1-yl)-7-nitro-6-oxo-5-(prop-2-yn-1-yl)-5,6-dihydro-1,5-naphthyridine-2-carbonitrile]	6.10	6.68	
Cn1c(=O)c([N+](=O)[O-])c(N2CCN(Cc3cccc4ccccc34)CC2)c2nc(C#N)ccc21 [Example 415, 5-methyl-8-{4-[(naphthalen-1-yl)methyl]piperazin-1-yl}-7-nitro-6-oxo-5,6-dihydro-1,5-naphthyridine-2-carbonitrile]	6.19		6.18
COc1cc(F)ccc1C(c1ccc(F)cc1)N1CCN(c2c(C#N)c(=O)n(C)c3ccc(C#N)nc23)CC1 (single isomer, unassigned) [Example 407, 8-{4-[(4-fluoro-2-methoxyphenyl)(4-fluorophenyl)methyl]piperazin-1-yl}-5-methy-6-oxo-5,6-dihydro-L5-naphthyridine-2,7-dicarbonitrile]	6.02		6.35

From patent publication US11866430B2, “Naphthyridinone compounds useful as T cell activators” (priority 2018, dated 2024)
